± gives the expanded uncertainty stated by the source.
Assay: xn = mol fraction of the nth substance listed
Details: Liquid, Pycnometric method

Compound: CCCCBr [1-bromobutane] + O=C=O
- mass density (317.9 K, 12010 kPa, x1 = 0.0989): 916 ± 4 kg/m3
- mass density (317.9 K, 12060 kPa, x1 = 0.1495): 1014 ± 4 kg/m3
- mass density (317.9 K, 12520 kPa, x1 = 0.1495): 1018 ± 4 kg/m3
- mass density (317.9 K, 12610 kPa, x1 = 0.0989): 923 ± 4 kg/m3
- mass density (317.9 K, 12970 kPa, x1 = 0.1495): 1022 ± 4 kg/m3
- mass density (317.9 K, 13250 kPa, x1 = 0.0989): 930 ± 4 kg/m3
- mass density (317.9 K, 13430 kPa, x1 = 0.1495): 1026 ± 4 kg/m3
- mass density (317.9 K, 13860 kPa, x1 = 0.1495): 1029 ± 4 kg/m3
- mass density (317.9 K, 13890 kPa, x1 = 0.0989): 937 ± 4 kg/m3
- mass density (317.9 K, 14380 kPa, x1 = 0.1495): 1033 ± 4 kg/m3
- mass density (317.9 K, 14630 kPa, x1 = 0.0989): 944 ± 4 kg/m3
- mass density (317.9 K, 14800 kPa, x1 = 0.1495): 1036 ± 4 kg/m3
- mass density (317.9 K, 14980 kPa, x1 = 0.0989): 947 ± 4 kg/m3
- mass density (317.9 K, 15020 kPa, x1 = 0.1495): 1038 ± 4 kg/m3
- mass density (322.7 K, 8260 kPa, x1 = 0.1495): 946 ± 4 kg/m3
- mass density (322.7 K, 8470 kPa, x1 = 0.1495): 948 ± 4 kg/m3
- mass density (322.7 K, 8500 kPa, x1 = 0.0989): 818 ± 4 kg/m3
- mass density (322.7 K, 8710 kPa, x1 = 0.1495): 952 ± 4 kg/m3
- mass density (322.7 K, 8720 kPa, x1 = 0.0989): 825 ± 4 kg/m3
- mass density (322.7 K, 8810 kPa, x1 = 0.0683): 731 ± 4 kg/m3
- mass density (322.7 K, 8820 kPa, x1 = 0.0245): 422 ± 4 kg/m3
- mass density (322.7 K, 8840 kPa, x1 = 0.0245): 425 ± 4 kg/m3
- mass density (322.7 K, 8860 kPa, x1 = 0.0461): 629 ± 4 kg/m3
- mass density (322.7 K, 8880 kPa, x1 = 0.0245): 432 ± 4 kg/m3
- mass density (322.7 K, 8880 kPa, x1 = 0.0683): 735 ± 4 kg/m3
- mass density (322.7 K, 8900 kPa, x1 = 0.0461): 632 ± 4 kg/m3
- mass density (322.7 K, 8920 kPa, x1 = 0.0245): 439 ± 4 kg/m3
- mass density (322.7 K, 8920 kPa, x1 = 0.0989): 830 ± 4 kg/m3
- mass density (322.7 K, 8920 kPa, x1 = 0.1495): 954 ± 4 kg/m3
- mass density (322.7 K, 8940 kPa, x1 = 0.0461): 639 ± 4 kg/m3
- mass density (322.7 K, 8960 kPa, x1 = 0.0245): 447 ± 4 kg/m3
- mass density (322.7 K, 8970 kPa, x1 = 0.0683): 740 ± 4 kg/m3
- mass density (322.7 K, 8990 kPa, x1 = 0.0461): 647 ± 4 kg/m3
- mass density (322.7 K, 9000 kPa, x1 = 0.0245): 455 ± 4 kg/m3
- mass density (322.7 K, 9060 kPa, x1 = 0.0461): 655 ± 4 kg/m3
- mass density (322.7 K, 9070 kPa, x1 = 0.0245): 465 ± 4 kg/m3
- mass density (322.7 K, 9070 kPa, x1 = 0.0683): 745 ± 4 kg/m3
- mass density (322.7 K, 9110 kPa, x1 = 0.0245): 473 ± 4 kg/m3
- mass density (322.7 K, 9120 kPa, x1 = 0.0461): 662 ± 4 kg/m3
- mass density (322.7 K, 9160 kPa, x1 = 0.0245): 482 ± 4 kg/m3
- mass density (322.7 K, 9160 kPa, x1 = 0.0683): 750 ± 4 kg/m3
- mass density (322.7 K, 9160 kPa, x1 = 0.0989): 836 ± 4 kg/m3
- mass density (322.7 K, 9160 kPa, x1 = 0.1495): 958 ± 4 kg/m3
- mass density (322.7 K, 9190 kPa, x1 = 0.0461): 671 ± 4 kg/m3
- mass density (322.7 K, 9210 kPa, x1 = 0.0245): 491 ± 4 kg/m3
- mass density (322.7 K, 9250 kPa, x1 = 0.0683): 755 ± 4 kg/m3
- mass density (322.7 K, 9260 kPa, x1 = 0.0245): 500 ± 4 kg/m3
- mass density (322.7 K, 9270 kPa, x1 = 0.0461): 679 ± 4 kg/m3
- mass density (322.7 K, 9320 kPa, x1 = 0.0245): 510 ± 4 kg/m3
- mass density (322.7 K, 9360 kPa, x1 = 0.0683): 759 ± 4 kg/m3
- mass density (322.7 K, 9370 kPa, x1 = 0.0245): 520 ± 4 kg/m3
- mass density (322.7 K, 9380 kPa, x1 = 0.0461): 687 ± 4 kg/m3
- mass density (322.7 K, 9380 kPa, x1 = 0.1495): 961 ± 4 kg/m3
- mass density (322.7 K, 9400 kPa, x1 = 0.0989): 841 ± 4 kg/m3
- mass density (322.7 K, 9430 kPa, x1 = 0.0245): 531 ± 4 kg/m3
- mass density (322.7 K, 9480 kPa, x1 = 0.0461): 696 ± 4 kg/m3
- mass density (322.7 K, 9480 kPa, x1 = 0.0683): 765 ± 4 kg/m3
- mass density (322.7 K, 9500 kPa, x1 = 0.0245): 542 ± 4 kg/m3
- mass density (322.7 K, 9570 kPa, x1 = 0.0245): 553 ± 4 kg/m3
- mass density (322.7 K, 9600 kPa, x1 = 0.0683): 770 ± 4 kg/m3
- mass density (322.7 K, 9610 kPa, x1 = 0.0461): 705 ± 4 kg/m3
- mass density (322.7 K, 9650 kPa, x1 = 0.0989): 847 ± 4 kg/m3
- mass density (322.7 K, 9660 kPa, x1 = 0.0245): 565 ± 4 kg/m3
- mass density (322.7 K, 9670 kPa, x1 = 0.1495): 964 ± 4 kg/m3
- mass density (322.7 K, 9730 kPa, x1 = 0.0683): 775 ± 4 kg/m3
- mass density (322.7 K, 9750 kPa, x1 = 0.0245): 576 ± 4 kg/m3
- mass density (322.7 K, 9810 kPa, x1 = 0.0461): 718 ± 4 kg/m3
- mass density (322.7 K, 9850 kPa, x1 = 0.0245): 590 ± 4 kg/m3
- mass density (322.7 K, 9870 kPa, x1 = 0.0683): 780 ± 4 kg/m3
- mass density (322.7 K, 9910 kPa, x1 = 0.1495): 968 ± 4 kg/m3
- mass density (322.7 K, 9930 kPa, x1 = 0.0245): 599 ± 4 kg/m3
- mass density (322.7 K, 9930 kPa, x1 = 0.0989): 853 ± 4 kg/m3
- mass density (322.7 K, 9990 kPa, x1 = 0.0245): 606 ± 4 kg/m3
- mass density (322.7 K, 10000 kPa, x1 = 0.0245): 608 ± 4 kg/m3
- mass density (322.7 K, 10050 kPa, x1 = 0.0683): 786 ± 4 kg/m3
- mass density (322.7 K, 10090 kPa, x1 = 0.0461): 733 ± 4 kg/m3
- mass density (322.7 K, 10160 kPa, x1 = 0.1495): 971 ± 4 kg/m3
- mass density (322.7 K, 10230 kPa, x1 = 0.0683): 791 ± 4 kg/m3
- mass density (322.7 K, 10240 kPa, x1 = 0.0989): 859 ± 4 kg/m3
- mass density (322.7 K, 10420 kPa, x1 = 0.0461): 748 ± 4 kg/m3
- mass density (322.7 K, 10420 kPa, x1 = 0.0683): 797 ± 4 kg/m3
- mass density (322.7 K, 10440 kPa, x1 = 0.1495): 974 ± 4 kg/m3
- mass density (322.7 K, 10550 kPa, x1 = 0.0989): 870 ± 4 kg/m3
- mass density (322.7 K, 10620 kPa, x1 = 0.0683): 802 ± 4 kg/m3
- mass density (322.7 K, 10760 kPa, x1 = 0.1495): 977 ± 4 kg/m3
- mass density (322.7 K, 10820 kPa, x1 = 0.0461): 764 ± 4 kg/m3
- mass density (322.7 K, 10840 kPa, x1 = 0.0683): 808 ± 4 kg/m3
- mass density (322.7 K, 10910 kPa, x1 = 0.0989): 872 ± 4 kg/m3
- mass density (322.7 K, 10980 kPa, x1 = 0.1495): 980 ± 4 kg/m3
- mass density (322.7 K, 11080 kPa, x1 = 0.0683): 814 ± 4 kg/m3
- mass density (322.7 K, 11270 kPa, x1 = 0.0989): 877 ± 4 kg/m3
- mass density (322.7 K, 11290 kPa, x1 = 0.0461): 779 ± 4 kg/m3
- mass density (322.7 K, 11340 kPa, x1 = 0.0683): 820 ± 4 kg/m3
- mass density (322.7 K, 11370 kPa, x1 = 0.1495): 984 ± 4 kg/m3

From the NIST ThermoML archive (doi:10.1021/je900387e)
